A short description of data set [1]: levetiracetam blood plasma levels in aMCI subjects. The note with it: human, upon completion of treatment, read-out: mean levetiracetam blood plasma level. Format: in vivo. The text has this:
At the end of the first drug/placebo period 2 weeks after the Baseline Visit, the medical, neurological and psychiatric evaluations and cognitive testing are repeated. The subject is also clinically evaluated for suicidal ideation. Blood is drawn again to repeat the standard tests and to determine whether there are any changes related to drug treatment; the subject's blood levetiracetam level is also obtained. All medication dispensed at the Baseline Visit (drug or placebo) is collected and subject compliance with the medication regimen is assessed. The first fMRI session (with cognitive tests) is conducted on the same day, either immediately before or immediately after the clinical assessment. Subjects discontinue first period treatment at this visit.
At approximately 2 weeks after the Washout Visit (i.e., 2 weeks after starting the second treatment period), the medical, neurological and psychiatric evaluations and the cognitive testing are repeated. The subject is clinically evaluated for suicidal ideation. Blood is drawn again to repeat the standard tests and to determine whether there were any changes related to drug treatment; the subject's blood levetiracetam level is also obtained. All medication dispensed at the Washout Visit is collected and subject compliance with the medication regimen is assessed. The second fMRI session (with cognitive tests) is repeated on the same day, either immediately before or immediately after the clinical assessment.
Human – in the human studies described in Examples 3 and 4, a subject's levetiracetam blood plasma level was assessed at each visit. The subject's blood was drawn by the Johns Hopkins Phlebotomy Service and analysis of levetiracetam blood plasma levels was conducted either by the Johns Hopkins Core laboratory or by MedTox Laboratories in St. Paul, Minn. for the 62.5 mg BID cohort, the 125 mg BID cohort and the 250 mg BID cohort.

Data set [2] deals with Age-Impaired (AI) Long-Evans rats. The data set is described as follows: Morris Water Maze retention trial, levetiracetam in aged-impaired rats. Type of data set: in vivo, rat. The protocol: The MWM apparatus consists of a large, circular pool (diameter 1.83 m; height, 0.58 m) filled with water (27° C.) that is made opaque through the addition of non-toxic pigment or some other substance. In the typical “hidden platform” version of the test, rats are trained to find a camouflaged white escape platform (height, 34.5 cm) that is positioned in the center of one quadrant of the maze about 1.0 cm below the water surface. This platform can be retracted to the bottom of the tank or raised to its normal position from outside the maze during behavioral testing. The location of the platform remains constant from trial to trial. Because there are no local cues that mark the position of the platform, the rat's ability to locate it efficiently from any starting position at the perimeter of the pool depends on using information surrounding the maze. The maze is surrounded by black curtains to which white patterns are affixed to provide a configuration of spatial cues. A second platform (height 37.5 cm), with its surface painted black is elevated 2 cm above the water surface during cue training to control for factors unrelated to cognition. The behavior of a rat in the pool is recorded by a camera that is suspended 2.5 m above the center of the pool. The camera is connected to a video tracking system (HVS Image Advanced Tracker VP200) and a PC computer running HVS software developed by Richard Baker of HVS Image, Hampton, UK. The MWM protocol is optimized for sensitivity to the effects of aging on cognition and for measures of reliable individual differences within the aged population of out-bred Long-Evans rats (Gallagher et al. Behav. Neurosci. 107:618-626, (1993)). Rats receive three trials per day for 8 consecutive days, using a 60 sec inter-trial interval. On each training trial, the rat is released into the maze from one of four equally spaced starting positions around the perimeter of the pool. […] At the completion of the protocol using the hidden platform, rats are assessed for cue learning using the visible platform. […]

Read-outs that look alike come from different tables or passages of the source.

On to `CC[C@@H](C(N)=O)N1CCCC1=O` [levetiracetam, (2S)-2-(2-oxopyrrolidin-1-yl)butanamide], for which the concentration at 2 weeks in data set [1] (125 mg BID cohort) was found to be 4400 ng/mL; in data set [1] (oral, 62.5 mg BID cohort) it was 2880 ng/mL; in data set [1] (oral, 250 mg BID cohort), 7900 ng/mL. Further, in data set [2] (levetiracetam 5 mg/kg/day i.p., retention trial 24 hours after two training days), the “time spent in the target quadrant (performance vs vehicle)” value is “did not significantly improve”. The “time spent in the target annulus” value in data set [2] (levetiracetam 10 mg/kg/day i.p., retention trial) was “effectiveness of the 10 mg/kg/day levetiracetam treatment was also seen”. Besides, in data set [2] (levetiracetam 10 mg/kg/day i.p., retention trial 24 hours after two training days), the “time spent in the target quadrant, percentage of total swimming time” value is reported as “approximately 35%”.

The values above are taken from patent US20160030391A1, “METHODS AND COMPOSITIONS FOR IMPROVING COGNITIVE FUNCTION” (THE JOHNS HOPKINS UNIVERSITY, priority 2013, published 2016).
